Assay results published in patent publication US8541365B2, “Dendrimeric compounds comprising amino acids, hyperbranched core compound, process for preparation of dendrimeric compounds comprising amino acids and hyperbranched core compound, and use thereof” (Instytut Chemii Organicznej, Polska Akademia Nauk, priority 2008, dated 2013).
Read-outs that look alike come from different tables or passages of the source.

Key:
S. aureus ATCC 25923 = format: cell-based, Staphylococus aureus subsp. aureus
Method: (§1) Titration plates with a, b, d strains were incubated for 18 h at 35° C. under aerobic conditions, and the c strain was incubated for 18 h at 33° C. under aerobic conditions.
b) Staphylococus aureus subsp. aureus ATCC 25923,

S. aureus ATTC 43300 = format: cell-based, Staphylococus aureus subsp. aureus
Method: as §1
c) Staphylococus aureus subsp. aureus ATCC 43300,

E. coli ATTC 25922 = format: cell-based, Escherichia coli
Method: as §1
d) Escherichia coli ATCC 25922

P. aeruginosa ATTC 27853 = format: cell-based, Pseudomonas aeruginosa
Method: as §1
a) Pseudomonas aeruginosa ATCC 27853,

[1] = system: human melanoma cells (MEW 155); settings: MEW 155 cells, 3 days culture
Method: Human melanoma cells (MEW 155) received from Institute of Oncology were inoculated on Petri dishes (Ø3 cm, Nunc) to the number of about 75 000, suspended in 3 ml of Eagle medium+10% FBS+antibiotics. Immediately after the inoculation, solutions of tested substances were added to the cells (a substance +20 ml PBS) at 0.5 ml per dish. After culturing for 3 days, numbers of cells (all, dead and alive) at each dish were determined with NucleoCounter apparatus (Chemometec).

[2] = S. aureus ATCC 25923, microdilution in CAMHB, 18 h at 35° C.
[3] = S. aureus ATTC 43300, microdilution in CAMHB, 18 h at 33° C.
[4] = E. coli ATTC 25922, microdilution in CAMHB, 18 h at 35° C.
[5] = P. aeruginosa ATTC 27853, microdilution in CAMHB, 18 h at 35° C.

With `N[C@@H](CCCCNC(=O)OCc1ccccc1)C(=O)NCCNC(=O)CCN(CCCC[C@@H](C(=O)NCCc1c[nH]c2ccccc12)N(CCC(=O)NCCNC(=O)[C@@H](N)CCCCNC(=O)OCc1ccccc1)CCC(=O)NCCNC(=O)[C@@H](N)CCCCNC(=O)OCc1ccccc1)CCC(=O)NCCNC(=O)[C@@H](N)CCCCNC(=O)OCc1ccccc1` [Compound 103] the “Minimal inhibitory concentration (MIC)” value (S. aureus ATCC 25923; [2]) was 12.9 μM/L, the “Minimal inhibitory concentration (MIC)” value (S. aureus ATTC 43300; [3]) was 74 μM/L and the “Minimal inhibitory concentration (MIC)” value (E. coli ATTC 25922; [4]) was 111 μM/L. The “Minimal inhibitory concentration (MIC)” value (P. aeruginosa ATTC 27853; [5]) was 149 μM/L and the “Live cells (%)” value ([1]; concentration 15.0 μMol dm^−3) was 96.5%.
With `NCCCC[C@H](NC(=O)OCc1ccccc1Cl)C(=O)NCCNC(=O)CCN(CCC(=O)NCCNC(=O)[C@H](CCCCN)NC(=O)OCc1ccccc1Cl)CC[C@@H](C(=O)NCCc1c[nH]c2ccccc12)N(CCC(=O)NCCNC(=O)[C@H](CCCCN)NC(=O)OCc1ccccc1Cl)CCC(=O)NCCNC(=O)[C@H](CCCCN)NC(=O)OCc1ccccc1Cl` [Compound 94] the “Minimal inhibitory concentration (MIC)” value (S. aureus ATCC 25923; [2]) was 0.94 μM/L, the “Minimal inhibitory concentration (MIC)” value (S. aureus ATTC 43300; [3]) was 10.12 μM/L and the “Minimal inhibitory concentration (MIC)” value (E. coli ATTC 25922; [4]) was 12.2 μM/L. The “Minimal inhibitory concentration (MIC)” value (P. aeruginosa ATTC 27853; [5]) was 70 μM/L and the “Live cells (%)” value ([1]; concentration 12.13 μMol dm^−3) was 88.4%.
`N[C@@H](CCCCNC(=O)OCc1ccccc1Cl)C(=O)NCCNC(=O)CCN(CCCC[C@@H](C(=O)NCCc1c[nH]c2ccccc12)N(CCC(=O)NCCNC(=O)[C@@H](N)CCCCNC(=O)OCc1ccccc1Cl)CCC(=O)NCCNC(=O)[C@@H](N)CCCCNC(=O)OCc1ccccc1Cl)CCC(=O)NCCNC(=O)[C@@H](N)CCCCNC(=O)OCc1ccccc1Cl` [Compound 101] was tested, and the “Minimal inhibitory concentration (MIC)” value (S. aureus ATCC 25923; [2]) was 0.93 μM/L, the “Minimal inhibitory concentration (MIC)” value (S. aureus ATTC 43300; [3]) was 10.0 μM/L and the “Minimal inhibitory concentration (MIC)” value (E. coli ATTC 25922; [4]) was 12.0 μM/L. For the same compound, the “Minimal inhibitory concentration (MIC)” value (P. aeruginosa ATTC 27853; [5]) was 51 μM/L.
In the case of `N[C@@H](CCCCNC(=O)OCc1ccccc1Cl)C(=O)NCCNC(=O)CCN(CCC[C@@H](C(=O)NCCc1c[nH]c2ccccc12)N(CCC(=O)NCCNC(=O)[C@@H](N)CCCCNC(=O)OCc1ccccc1Cl)CCC(=O)NCCNC(=O)[C@@H](N)CCCCNC(=O)OCc1ccccc1Cl)CCC(=O)NCCNC(=O)[C@@H](N)CCCCNC(=O)OCc1ccccc1Cl` [Compound 97], the “Minimal inhibitory concentration (MIC)” value (S. aureus ATCC 25923; [2]) is reported as 0.93 μM/L, the “Minimal inhibitory concentration (MIC)” value (S. aureus ATTC 43300; [3]) is reported as 20.4 μM/L and the “Minimal inhibitory concentration (MIC)” value (E. coli ATTC 25922; [4]) is reported as 7.9 μM/L. For the same compound, the “Minimal inhibitory concentration (MIC)” value (P. aeruginosa ATTC 27853; [5]) was 60 μM/L.
With `N[C@@H](CCCCNC(=O)OCc1ccccc1Cl)C(=O)NCCNC(=O)CCN(CCC(=O)NCCNC(=O)[C@@H](N)CCCCNC(=O)OCc1ccccc1Cl)C[C@@H](C(=O)NCCc1c[nH]c2ccccc12)N(CCC(=O)NCCNC(=O)[C@@H](N)CCCCNC(=O)OCc1ccccc1Cl)CCC(=O)NCCNC(=O)[C@@H](N)CCCCNC(=O)OCc1ccccc1Cl` [Compound 99] the “Minimal inhibitory concentration (MIC)” value (S. aureus ATCC 25923; [2]) was 0.6 μM/L, the “Minimal inhibitory concentration (MIC)” value (S. aureus ATTC 43300; [3]) was 3.32 μM/L and the “Minimal inhibitory concentration (MIC)” value (E. coli ATTC 25922; [4]) was 7.0 μM/L. The “Minimal inhibitory concentration (MIC)” value (P. aeruginosa ATTC 27853; [5]) was 52 μM/L.
`NCCCC[C@H](NC(=O)OCc1ccccc1Cl)C(=O)NCCNC(=O)CCN(CCCC[C@@H](C(=O)NCCc1c[nH]c2ccccc12)N(CCC(=O)NCCNC(=O)[C@H](CCCCN)NC(=O)OCc1ccccc1Cl)CCC(=O)NCCNC(=O)[C@H](CCCCN)NC(=O)OCc1ccccc1Cl)CCC(=O)NCCNC(=O)[C@H](CCCCN)NC(=O)OCc1ccccc1Cl` [Compound 100] was tested, and the “Minimal inhibitory concentration (MIC)” value (S. aureus ATCC 25923; [2]) was 0.93 μM/L, the “Minimal inhibitory concentration (MIC)” value (S. aureus ATTC 43300; [3]) was 5.81 μM/L and the “Minimal inhibitory concentration (MIC)” value (E. coli ATTC 25922; [4]) was 3.71 μM/L. The “Minimal inhibitory concentration (MIC)” value (P. aeruginosa ATTC 27853; [5]) was 41 μM/L and the “Live cells (%)” value ([1]; concentration 25.7 μMol dm^−3) was 0%.
For `NCCCC[C@H](NC(=O)OCc1ccccc1Cl)C(=O)NCCNC(=O)CCN(CCCC(C(=O)Nc1cccnc1)N(CCC(=O)NCCNC(=O)[C@H](CCCCN)NC(=O)OCc1ccccc1Cl)CCC(=O)NCCNC(=O)[C@H](CCCCN)NC(=O)OCc1ccccc1Cl)CCC(=O)NCCNC(=O)[C@H](CCCCN)NC(=O)OCc1ccccc1Cl` (stereo partly shown) [Compound 93], the “Live cells (%)” value ([1]; concentration 13.65 μMol dm^−3) was 95.8%.
In the case of `NCCCC[C@H](NC(=O)OCc1ccccc1Br)C(=O)NCCNC(=O)CCN(CCCC[C@@H](C(=O)NCCc1c[nH]c2ccccc12)N(CCC(=O)NCCNC(=O)[C@H](CCCCN)NC(=O)OCc1ccccc1Br)CCC(=O)NCCNC(=O)[C@H](CCCCN)NC(=O)OCc1ccccc1Br)CCC(=O)NCCNC(=O)[C@H](CCCCN)NC(=O)OCc1ccccc1Br` [Compound 104], the “Minimal inhibitory concentration (MIC)” value (S. aureus ATCC 25923; [2]) is reported as 3.43 μM/L, the “Minimal inhibitory concentration (MIC)” value (S. aureus ATTC 43300; [3]) is reported as 30 μM/L and the “Minimal inhibitory concentration (MIC)” value (E. coli ATTC 25922; [4]) is reported as 30 μM/L. For the same compound, the “Minimal inhibitory concentration (MIC)” value (P. aeruginosa ATTC 27853; [5]) was 64 μM/L and the “Live cells (%)” value ([1]; concentration 21.4 μMol dm^−3) was 73.6%.
For `NCCCC[C@H](NC(=O)OCc1ccccc1)C(=O)NCCNC(=O)CCN(CCCC[C@@H](C(=O)NCCc1c[nH]c2ccccc12)N(CCC(=O)NCCNC(=O)[C@H](CCCCN)NC(=O)OCc1ccccc1)CCC(=O)NCCNC(=O)[C@H](CCCCN)NC(=O)OCc1ccccc1)CCC(=O)NCCNC(=O)[C@H](CCCCN)NC(=O)OCc1ccccc1` [Compound 102], the “Minimal inhibitory concentration (MIC)” value (S. aureus ATCC 25923; ATCC 25923, 18 h) was 17.3 μM/L, the “Minimal inhibitory concentration (MIC)” value (S. aureus ATTC 43300; ATTC 43300, 18 h) was 149 μM/L and the “Minimal inhibitory concentration (MIC)” value (E. coli ATTC 25922; ATTC 25922, 18 h) was 149 μM/L. For the same compound, the “Minimal inhibitory concentration (MIC)” value (P. aeruginosa ATTC 27853; ATTC 27853, 18 h) was 149 μM/L and the “Live cells (%)” value ([1]; concentration 13.6 μMol dm^−3) was 98.5%.
For `NCCC[C@H](NC(=O)OCc1ccccc1Cl)C(=O)NCCNC(=O)CCN(CCCC[C@@H](C(=O)NCCc1c[nH]c2ccccc12)N(CCC(=O)NCCNC(=O)[C@H](CCCN)NC(=O)OCc1ccccc1Cl)CCC(=O)NCCNC(=O)[C@H](CCCN)NC(=O)OCc1ccccc1Cl)CCC(=O)NCCNC(=O)[C@H](CCCN)NC(=O)OCc1ccccc1Cl` [Compound 106], the “Minimal inhibitory concentration (MIC)” value (S. aureus ATCC 25923; [2]) was 3.82 μM/L, the “Minimal inhibitory concentration (MIC)” value (S. aureus ATTC 43300; [3]) was 25 μM/L and the “Minimal inhibitory concentration (MIC)” value (E. coli ATTC 25922; [4]) was 16.7 μM/L. For the same compound, the “Minimal inhibitory concentration (MIC)” value (P. aeruginosa ATTC 27853; [5]) was 71 μM/L and the “Live cells (%)” value ([1]; concentration 10.0 μMol dm^−3) was 87.7%.
In the case of `NCCCC[C@H](NC(=O)OCc1ccccc1Cl)C(=O)NCCNC(=O)CCN(CCC[C@@H](C(=O)NCCc1c[nH]c2ccccc12)N(CCC(=O)NCCNC(=O)[C@H](CCCCN)NC(=O)OCc1ccccc1Cl)CCC(=O)NCCNC(=O)[C@H](CCCCN)NC(=O)OCc1ccccc1Cl)CCC(=O)NCCNC(=O)[C@H](CCCCN)NC(=O)OCc1ccccc1Cl` [Compound 96], the “Minimal inhibitory concentration (MIC)” value (S. aureus ATCC 25923; [2]) is reported as 1.87 μM/L, the “Minimal inhibitory concentration (MIC)” value (S. aureus ATTC 43300; [3]) is reported as 12.1 μM/L and the “Minimal inhibitory concentration (MIC)” value (E. coli ATTC 25922; [4]) is reported as 12.1 μM/L. For the same compound, the “Minimal inhibitory concentration (MIC)” value (P. aeruginosa ATTC 27853; [5]) was 51 μM/L and the “Live cells (%)” value ([1]; concentration 33.6 μMol dm^−3) was 11.6%.
`N[C@@H](CCCCNC(=O)OCc1ccccc1Cl)C(=O)NCCNC(=O)CCN(CCC(=O)NCCNC(=O)[C@@H](N)CCCCNC(=O)OCc1ccccc1Cl)CC[C@@H](C(=O)NCCc1c[nH]c2ccccc12)N(CCC(=O)NCCNC(=O)[C@@H](N)CCCCNC(=O)OCc1ccccc1Cl)CCC(=O)NCCNC(=O)[C@@H](N)CCCCNC(=O)OCc1ccccc1Cl` [Compound 95] was tested, and the “Minimal inhibitory concentration (MIC)” value (S. aureus ATCC 25923; [2]) was 1.88 μM/L, the “Minimal inhibitory concentration (MIC)” value (S. aureus ATTC 43300; [3]) was 32 μM/L and the “Minimal inhibitory concentration (MIC)” value (E. coli ATTC 25922; [4]) was 32 μM/L. For the same compound, the “Minimal inhibitory concentration (MIC)” value (P. aeruginosa ATTC 27853; [5]) was 51 μM/L.
For `NCCCC[C@H](NC(=O)OCc1ccccc1Cl)C(=O)NCCNC(=O)CCN(CCC[C@@H](C(=O)NCCc1c[nH]cn1)N(CCC(=O)NCCNC(=O)[C@H](CCCCN)NC(=O)OCc1ccccc1Cl)CCC(=O)NCCNC(=O)[C@H](CCCCN)NC(=O)OCc1ccccc1Cl)CCC(=O)NCCNC(=O)[C@H](CCCCN)NC(=O)OCc1ccccc1Cl` [Compound 107], the “Live cells (%)” value ([1]; concentration 47.1 μMol dm^−3) was 91.1%.
In the case of `N[C@@H](CCCCNC(=O)OCc1ccccc1Cl)C(=O)NCCNC(=O)CCN(CCC[C@@H](C(=O)NCCc1c[nH]cn1)N(CCC(=O)NCCNC(=O)[C@@H](N)CCCCNC(=O)OCc1ccccc1Cl)CCC(=O)NCCNC(=O)[C@@H](N)CCCCNC(=O)OCc1ccccc1Cl)CCC(=O)NCCNC(=O)[C@@H](N)CCCCNC(=O)OCc1ccccc1Cl` [Compound 108], the “Live cells (%)” value ([1]; concentration 42.1 μMol dm^−3) is reported as 94.9%.
`N[C@@H](CCCCNC(=O)OCc1ccccc1Cl)C(=O)NCCNC(=O)CCN(CCCC(C(=O)Nc1cccnc1)N(CCC(=O)NCCNC(=O)[C@@H](N)CCCCNC(=O)OCc1ccccc1Cl)CCC(=O)NCCNC(=O)[C@@H](N)CCCCNC(=O)OCc1ccccc1Cl)CCC(=O)NCCNC(=O)[C@@H](N)CCCCNC(=O)OCc1ccccc1Cl` (stereo partly shown) [Compound 92] was tested, and the “Live cells (%)” value ([1]; concentration 7.14 μMol dm^−3) was 97.7%.
